Experimental data from patent publication US20040096520A1, “Manganese compositions for reducing/preventing skin wrinkles and fine lines” (SOCIETE L'OREAL S.A., priority 2000, published 2004).

Tested on: phrenic nerve/isolated diaphragm preparation
Details: 10^−3 M; contractions induced by indirect stimulation via the phrenic nerve (0.1 to 7 volts, 0.3 ms, 0.1 Hz); cumulative concentrations
Description: Activity of manganese gluconate and of manganese chloride in a model of nerve/muscle junction (motor plate) obtained in a phrenic nerve/isolated diaphragm preparation: investigation of a myorelaxant effect:
The phrenic nerve and the diaphragm were carefully isolated and placed in a 50 ml tank filled with survival fluid (Krebs Henseleit liquid) maintained at a temperature of 37° C. and oxygenated with a mixture of 95% oxygen and 5% CO2.
The variations in the tension of the diaphragm were then recorded with an initial preloading of several grams.
After a relaxation period of 30 min., the diaphragm was stimulated indirectly via the phrenic nerve.
On each preparation, the effect of the test products was evaluated, in a first stage, on the contractions induced by indirect stimulation via stimulation of the phrenic nerve (0.1 to 7 volts, 0.3 ms, 0.1 Hz) at increasing and cumulative concentrations from 10^−6 M to 10^−3 M.

## manganese chloride [MnCl2]
  % of inhibition (indirect stimulation): 10%

## manganese gluconate
  % of inhibition (indirect stimulation): 25%
